# Measured values published in ChEMBL document CHEMBL4004877, “Synthesis and biological evaluation of chalcone, dihydrochalcone, and 1,3-diarylpropane analogs as anti-inflammatory agents” (Bioorg Med Chem Lett, 2017).
# Calls of active or inactive are those of the source. The rule behind the calls is not given here.
# What was measured:
# [1] = test system: RAW264.7; assay: Antiinflammatory activity in mouse RAW264.7 cells assessed as inhibition of LPS induced iNOS-dependent nitric oxide production at 1.25 ug/ml after 24 hrs by Griess assay relative to control; format: functional; conditions: RAW264.7, 24 h
# [2] = Cytotoxicity against LPS-stimulated mouse RAW264.7 cells assessed as cell viability at 5 ug/ml after 24 hrs by MTT assay relative to control; format: cell-based; conditions: LPS-stimulated RAW264.7 cells, read-out: Activity
# [3] = test system: RAW264.7; assay: Antiinflammatory activity in mouse RAW264.7 cells assessed as inhibition of LPS induced iNOS-dependent nitric oxide production at 5 ug/ml after 24 hrs by Griess assay relative to control; format: functional; conditions: RAW264.7, 24 h
# [4] = Cytotoxicity against LPS-stimulated mouse RAW264.7 cells assessed as cell viability at 10 ug/ml after 24 hrs by MTT assay relative to control; format: cell-based; conditions: LPS-stimulated RAW264.7 cells, read-out: Activity
# [5] = Cytotoxicity against LPS-stimulated mouse RAW264.7 cells assessed as cell viability at 1.25 ug/ml after 24 hrs by MTT assay relative to control; format: cell-based; conditions: LPS-stimulated RAW264.7 cells, read-out: Activity
# [6] = test system: RAW264.7; assay: Antiinflammatory activity in mouse RAW264.7 cells assessed as inhibition of LPS induced iNOS-dependent nitric oxide production at 10 ug/ml after 24 hrs by Griess assay relative to control; format: functional; conditions: RAW264.7, 24 h
# [7] = test system: RAW264.7; assay: Antiinflammatory activity in mouse RAW264.7 cells assessed as inhibition of LPS induced iNOS-dependent nitric oxide production after 24 hrs by Griess assay; format: functional, cell-based; conditions: RAW264.7, 24 h
# [8] = test system: RAW264.7; assay: Antiinflammatory activity in mouse RAW264.7 cells assessed as inhibition of LPS induced iNOS-dependent nitric oxide production at 2.5 ug/ml after 24 hrs by Griess assay relative to control; format: functional; conditions: RAW264.7, 24 h
# [9] = Cytotoxicity against LPS-stimulated mouse RAW264.7 cells assessed as cell viability at 2.5 ug/ml after 24 hrs by MTT assay relative to control; format: cell-based; conditions: LPS-stimulated RAW264.7 cells, read-out: Activity
# [10] = species on record: Mus musculus; assay: Inhibition of JNK phosphorylation in LPS-stimulated mouse RAW264.7 cells at 2.5 to 10 ug/ml preincubated for 1 hr followed by LPS challenge measured after 24 hrs by Western blot method
# [11] = test system: RAW264.7; assay: Effect on non-phosphorylated JNK in LPS-stimulated mouse RAW264.7 cells at 2.5 to 10 ug/ml preincubated for 1 hr followed by LPS challenge measured after 24 hrs by Western blot method; format: cell-based; conditions: raw264.7, 24 h
# [12] = test system: RAW264.7; assay: Inhibition of iNOS expression in LPS-stimulated mouse RAW264.7 cells after 24 hrs by Western blot method; format: functional, cell-based
# [13] = target: MAP kinase p38 (Mus musculus) (UniProt P47811+O08911+Q9WUI1+Q9Z1B7); assay: Inhibition of p38 phosphorylation in LPS-stimulated mouse RAW264.7 cells at 2.5 to 10 ug/ml preincubated for 1 hr followed by LPS challenge measured after 24 hrs by Western blot method
# [14] = test system: RAW264.7; assay: Inhibition of COX2 expression in LPS-stimulated mouse RAW264.7 cells at 2.5 to 10 ug/ml after 24 hrs by Western blot method; format: functional, cell-based
# [15] = test system: RAW264.7; assay: Effect on non-phosphorylated ERK in LPS-stimulated mouse RAW264.7 cells at 2.5 to 10 ug/ml preincubated for 1 hr followed by LPS challenge measured after 24 hrs by Western blot method; format: cell-based; conditions: raw264.7, 24 h
# [16] = species on record: Mus musculus; assay: Inhibition of ERK phosphorylation in LPS-stimulated mouse RAW264.7 cells at 2.5 to 10 ug/ml preincubated for 1 hr followed by LPS challenge measured after 24 hrs by Western blot method
# [17] = test system: RAW264.7; assay: Effect on non-phosphorylated p38 in LPS-stimulated mouse RAW264.7 cells at 2.5 to 10 ug/ml preincubated for 1 hr followed by LPS challenge measured after 24 hrs by Western blot method; format: cell-based; conditions: raw264.7, 24 h
# [18] = test system: RAW264.7; assay: Inhibition of IkappaB-alpha expression in LPS-stimulated mouse RAW264.7 cells at 2.5 to 10 ug/ml preincubated for 1 hr followed by LPS challenge measured after 24 hrs by Western blot method; format: functional, cell-based
SMILES,IC50 [7] [µg/mL],inhibition [10],inhibition [13],inhibition [16],inhibition at 1.25 µg/mL [1] [%],"viability at 24 h, 5 ug/ml [2] [%]",inhibition at 5 µg/mL [3] [%],"viability at 24 h, 10 ug/ml [4] [%]","viability at 24 h, 1.25 ug/ml [5] [%]",inhibition at 10 µg/mL [6] [%],inhibition at 2.5 µg/mL [8] [%],"viability at 24 h, 2.5 ug/ml [9] [%]",Activity [11],inhibition [12],inhibition [14],Activity [15],Activity [17],inhibition [18]
COc1ccc(C(=O)/C=C/c2ccc3c(c2)OCO3)c(OC)c1,2.43,–,–,–,2.4,69.2,52,66.2,92.7,62.4,51.9,70.4,–,–,–,–,–,–
COc1ccc(CCCc2ccc(OC)c(OC)c2)c(O)c1,1.97,Active,Active,Active,29.6,88.9,69.2,44.5,97.9,75.5,60.5,91.7,Non-Toxic,Dose-dependent effect,Active,Non-Toxic,Non-Toxic,inactive
COc1ccc(C(=O)/C=C/c2ccc(OC)cc2OC)c(O)c1,> 10,–,–,–,3.4,87.3,12.2,68,98.7,2.8,7.4,90.3,–,–,–,–,–,–
COc1ccc(CCCc2ccc3c(c2)OCO3)c(OC)c1,> 10,–,–,–,16.9,97.2,28,94.7,99.1,44.6,20.1,97.7,–,–,–,–,–,–
Oc1ccc(CCCc2ccc3c(c2)OCO3)cc1,5.18,–,–,–,33,94.5,48.9,92.6,99.2,69.4,37.7,95.7,–,–,–,–,–,–
O=C(CCc1ccc2c(c1)OCO2)c1ccc(O)cc1,8.72,–,–,–,2,87.3,24.8,82.9,95.1,56.2,19.8,89,–,–,–,–,–,–
COc1ccc(CCCc2ccc(OC)c(OC)c2)cc1OC,9.47,–,–,–,8.4,95.6,26.1,94.9,99,52,12.7,97.4,–,–,–,–,–,–

# Second part, led by results:
IC50 [7] [µg/mL],inhibition [10],inhibition [13],inhibition [16],SMILES,inhibition at 1.25 µg/mL [1] [%],"viability at 24 h, 5 ug/ml [2] [%]",inhibition at 5 µg/mL [3] [%],"viability at 24 h, 10 ug/ml [4] [%]","viability at 24 h, 1.25 ug/ml [5] [%]",inhibition at 10 µg/mL [6] [%],inhibition at 2.5 µg/mL [8] [%],"viability at 24 h, 2.5 ug/ml [9] [%]",Activity [11],inhibition [12],inhibition [14],Activity [15],Activity [17],inhibition [18]
4.35,–,–,–,COc1ccc(CCC(=O)c2ccc(OC)c(OC)c2)cc1,14.1,95.1,54.4,90.6,99.1,57.2,32.5,98.6,–,–,–,–,–,–
> 10,–,–,–,COc1cccc(CCC(=O)c2cccc(O)c2)c1OC,7.5,93.4,25,91.4,96.4,47.5,14.1,94,–,–,–,–,–,–
> 10,–,–,–,COc1ccc(OC)c(CCCc2cccc(O)c2)c1,1.5,93.5,36.8,92.2,101,38.9,19.9,98.2,–,–,–,–,–,–
9.81,–,–,–,COc1ccc(CCC(=O)c2ccc(O)c(OC)c2)cc1,2.9,89.8,26.1,86.5,90,50.7,12.2,92,–,–,–,–,–,–
4.88,–,–,–,COc1ccc(/C=C/C(=O)c2ccc(O)c(OC)c2)cc1,7.7,82.9,51.7,62.3,96.2,53.9,3.1,96,–,–,–,–,–,–
8.38,–,–,–,COc1ccc(/C=C/C(=O)c2cccc(O)c2)cc1OC,1.7,83.8,3.5,63.9,101,65.9,3.3,91,–,–,–,–,–,–
> 10,–,–,–,COc1ccc(C(=O)CCc2cccc(OC)c2OC)c(O)c1,0.8,92.7,5.4,92.8,96.6,18.6,2.8,95.2,–,–,–,–,–,–
> 10,–,–,–,COc1ccc(C(=O)CCc2ccc(OC)c(OC)c2OC)c(O)c1,0.9,94.8,7.5,94,101,10.3,2.8,94.4,–,–,–,–,–,–
